{"source": "patent US10245261B2", "about": "“Substituted indol-5-ol derivatives and their therapeutic applications” (NantBioScience, Inc., priority 2013, dated 2019)", "key": {"[1]": {"tested_on": "NCI 60 cancer cell line panel", "assay": "NCI-60 DTP Human Tumor Cell Line Panel, SRB growth inhibition", "format": "cell-based", "details": "cell lines from the NCI 60 panel", "procedure": "The human tumor cell lines of the cancer screening panel are grown in RPMI 1640 medium containing 5% fetal bovine serum and 2 mM L-glutamine. For a typical screening experiment, cells are inoculated into 96 well microtiter plates in 100 μL at plating densities ranging from 5,000 to 40,000 cells/well depending on the doubling time of individual cell lines. After cell inoculation, the microtiter plates are incubated at 37° C., 5% CO2, 95% air and 100% relative humidity for 24 h prior to addition of experimental drugs.\nAfter 24 h, two plates of each cell line are fixed in situ with TCA, to represent a measurement of the cell population for each cell line at the time of drug addition (Tz). Experimental drugs are solubilized in dimethyl sulfoxide at 400-fold the desired final maximum test concentration and stored frozen prior to use. At the time of drug addition, an aliquot of frozen concentrate is thawed and diluted to twice the desired final maximum test concentration with complete medium containing 50 μg/ml gentamicin. Additional four, 10-fold or ½ log serial dilutions are made to provide a total of five drug concentrations plus control. Aliquots of 100 μl of these different drug dilutions are added to the appropriate microtiter wells already containing 100 μl of medium, resulting in the required final drug concentrations.\nFollowing drug addition, the plates are incubated for an additional 48 h at 37° C., 5% CO2, 95% air, and 100% relative humidity. For adherent cells, the assay is terminated by the addition of cold TCA. Cells are fixed in situ by the gentle addition of 50 μl of cold 50% (w/v) TCA (final concentration, 10% TCA) and incubated for 60 minutes at 4° C. The supernatant is discarded, and the plates are washed five times with tap water and air dried. Sulforhodamine B (SRB) solution (100 μl) at 0.4% (w/v) in 1% acetic acid is added to each well, and plates are incubated for 10 minutes at room temperature. After staining, unbound dye is removed by washing five times with 1% acetic acid and the plates are air dried. Bound stain is subsequently solubilized with 10 mM trizma base, and the absorbance is read on an automated plate reader at a wavelength of 515 nm. For suspension cells, the methodology is the same except that the assay is terminated by fixing settled cells at the bottom of the wells by gently adding 50 μl of 80% TCA (final concentration, 16% TCA). Using the seven absorbance measurements [time zero, (Tz), control growth, (C), and test growth in the presence of drug at the five concentration levels (Ti)], the percentage growth is calculated at each of the drug concentrations levels. Percentage growth inhibition is calculated as: [(Ti−Tz)/(C−Tz)]×100 for concentrations for which Ti>/=Tz [(Ti−Tz)/Tz]×100 for concentrations for which Ti<Tz.\nThree dose response parameters are calculated for each experimental agent."}, "[2]": {"tested_on": "human MV411 human acute myelogenous leukemia (AML) xenograft", "assay": "AML xenograft model in female SCID mice", "format": "in vivo, mouse", "procedure": "The objective of the first study was to evaluate antitumor activities of the novel multiple-kinase inhibitor NTW-3475 against human MV411 human acute myelogenous leukemia (AML) xenograft model in female SCID mice.\nFour or six animals were randomly assigned to each study group. Each animal was injected subcutaneously in the left and right flank area with 0.1 ml of 1.0×10^8 MV411 cells per mL.\n(§1) Each test or control animal was placed on a 5-day on, two-day off for two cycles of vehicle negative control or 25, 50 mg/kg of NTW-3475. Tumor growth was measured with a digital hand held caliper twice weekly (once tumor emerges) prior to the first dosing and then two to three times weekly until euthanized. Animals were weighed prior to tumor cell injection, prior to dosing, two to three times weekly with tumor growth measurements, and prior to euthanasia.\nThe objective of the first study was to evaluate antitumor activities of the novel multiple-kinase inhibitor Compounds 11, 68, and 82 against human MV411 human acute myelogenous leukemia (AML) xenograft model in female SCID mice.\nas §1, with “compound.” for “NTW-3475.”"}, "[3]": {"tested_on": "human K562 chronic myelogenous leukemia (CML) xenograft", "assay": "CML xenograft model in female SCID mice", "format": "in vivo, mouse", "procedure": "The objective of the second study was to evaluate antitumor activities of novel multiple-kinase inhibitor NTW-3475 in human K562 chronic myelogenous leukemia (CML) xenograft model in female SCID mice.\nFour to six animals were randomly assigned to study groups. Each animal was weighed, and then injected subcutaneously in the left and right flank area with 0.1 ml of 8.0×10^7 K562 cells per mL.\nas §1, with “was” for “was placed”, “treatment schedule.” for “of vehicle negative control or 25, 50 mg/kg of NTW-3475.”\nThis example illustrated antitumor activities of Compound 10 and 11 in human K562 chronic myelogenous leukemia (CML) xenograft model in female SCID mice.\nOn the appropriate days, each animal in an appropriate group will receive a specific amount of test article either at 75 or 100 mg/kg, and the dosing volume is 10 ml/kg by oral gavage as indicated. Dosing schedule will be once daily for 10 days (qd×10, 5 days on and 2 days off for 2 cycles)."}, "[4]": {"tested_on": "human MIAPaCa-2 pancreatic carcinoma xenograft", "assay": "Pancreatic carcinoma xenograft in athymic nude mice", "format": "in vivo, mouse", "details": "MIAPaCa-2 xenograft", "procedure": "The objective of the third study was to evaluate antitumor activities of novel multiple-kinase inhibitor NTW-3475 in human MIAPaCa-2 pancreatic carcinoma xenograft in athymic nude-Faxn1 mice.\nFour animals were randomly assigned to study groups. Each animal was weighed, and then injected subcutaneously in the left and right flank area with 0.1 ml of 5.0×10^7 MIAPaCa-2 cells per mL.\nEach test or control animal was on a 5-day on, two-day off for two cycles treatment schedule with negative control vehicle, positive control Abraxane at 20 mg/kg or 25, 50 mg/kg of NTW-3475. Tumor growth was measured with a digital hand held caliper twice weekly (once tumor emerges) prior to the first dosing and then two to three times weekly until euthanized.\nThe objective of the third study was to evaluate antitumor activities of novel multiple-kinase inhibitor Compound 10, 11, 12, 53, 68, 82, 83, 88, and 90 in human MIAPaCa-2 pancreatic carcinoma xenograft in athymic nude-Faxn1 mice.\nEach test or control animal was on a 5-day on, two-day off for three cycles treatment schedule with negative control vehicle or 40 mg/kg of Compound 10, 11, 12, 53, 68, 82, 83, 88 and 90. Tumor growth was measured with a digital hand held caliper twice weekly (once tumor emerges) prior to the first dosing and then two to three times weekly until euthanized."}, "[5]": {"tested_on": "TT human Thyroid carcinoma xenograft", "assay": "Thyroid carcinoma xenograft", "format": "in vivo, mouse", "procedure": "This example assesses Compound 10, 53 and 88's anti-tumor activity using a SCID mouse xenograft models for TT human Thyroid carcinoma xenograft (FIGS. 65 to 69.)\nOn the appropriate days, each animal in an appropriate group will receive a specific amount of Compound 10 either at 50 or 100 mg/kg, and the dosing volume is 10 ml/kg by oral gavage as indicated. Dosing schedule will be once daily for 30 days.\nOn the appropriate days, each animal in an appropriate group will receive a specific amount of Compound 53 either at 50 or 100 mg/kg, and the dosing volume is 10 ml/kg by oral gavage as indicated. Dosing schedule will be once daily for 30 days.\nDosing schedule will be once daily for 30 days."}, "[6]": {"tested_on": "AN3 human endometrial carcinoma xenograft", "assay": "Endometrial carcinoma xenograft", "format": "in vivo, mouse"}}, "data": [{"smiles": "Cc1cc2c(F)c(Oc3nc(Nc4cc(C5CC5)[nH]n4)cc(N4CCN(C)CC4)n3)cc(F)c2[nH]1", "note": "[NTW-3475]", "values": [{"measurement": "antiproliferative activity", "setting": "[1]", "value": "strong antiproliferative activity"}, {"measurement": "anti-tumor effect", "setting": "[2]", "value": "strong anti-tumor effect"}, {"measurement": "body weight change", "setting": "[2]", "value": "minimal body weight lost"}, {"measurement": "anti-tumor effect", "setting": "[3]", "value": "strong anti-tumor effect"}, {"measurement": "anti-tumor effect in combination with Abraxane", "setting": "[4]; combination with Abraxane", "value": "anti-tumor effect"}, {"measurement": "anti-tumor effect", "setting": "[4]; nude mice, single agent", "value": "strong anti-tumor effect"}, {"measurement": "anti-tumor effect", "setting": "[5]", "value": "anti-tumor effect"}, {"measurement": "anti-tumor effect", "setting": "[6]", "value": "anti-tumor effect"}]}]}
